pIC50: −log10 of the molar value. Activity calls are given as the source filed them. No cut-off for these calls is given here.

1 molecule from ChEMBL document CHEMBL4152229, “Synthesis and biological evaluation of 2,6-disubstituted-9H-purine, 2,4-disubstitued-thieno[3,2-d]pyrimidine and -7H-pyrrolo[2,3-d]pyrimidine analogues as novel CHK1 inhibitors” (Eur J Med Chem, 2018) can be followed below.

The test system of experiment [1] is HT-29. The experiment is described as follows: Potentiation of gemcitabine-induced cell cycle arrest in human HT-29 cells assessed as accumulation at S phase at 10 uM after 48 hrs by propidium iodide/RNase staining-based flow cytometric analysis (reference value: 62.1%). The experiment is classed as functional.
The target of experiment [2] is T1, Serine/threonine-protein kinase Chk1 (Homo sapiens, UniProt O14757).
T1 sequence (O14757 whole entry): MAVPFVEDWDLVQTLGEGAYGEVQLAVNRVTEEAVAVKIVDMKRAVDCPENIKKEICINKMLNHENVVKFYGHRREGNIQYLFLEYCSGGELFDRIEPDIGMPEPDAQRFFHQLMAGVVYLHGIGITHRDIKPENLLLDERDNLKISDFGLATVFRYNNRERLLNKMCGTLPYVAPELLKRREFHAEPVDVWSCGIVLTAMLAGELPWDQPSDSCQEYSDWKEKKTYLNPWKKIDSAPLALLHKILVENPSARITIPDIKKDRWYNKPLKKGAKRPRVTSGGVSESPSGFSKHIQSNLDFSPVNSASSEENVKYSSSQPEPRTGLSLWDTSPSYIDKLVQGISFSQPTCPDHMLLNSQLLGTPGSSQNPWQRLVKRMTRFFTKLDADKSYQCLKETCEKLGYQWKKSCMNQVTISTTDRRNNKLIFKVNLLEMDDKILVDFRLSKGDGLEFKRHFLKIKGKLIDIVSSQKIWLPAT
In words: Inhibition of CHK1 (unknown origin) using Cdc25 peptide as substrate preincubated for 30 mins followed by substrate addition and measured after 60 mins by ADP-Glo kinase assay.

The target in experiment [3] is RAC-alpha serine/threonine-protein kinase (Homo sapiens) (UniProt P31749). The experiment is described as follows: Inhibition of DNA-tagged AKT1 (unknown origin) expressed in HEK293 cells at 10 uM after 1 hr by real-time fluorescent quantitative PCR analysis. The class given is cell-based.
Experiment [4] deals with T2, Serine/threonine-protein kinase Chk1 (Homo sapiens) (UniProt O14757).
T2 sequence (whole entry): T1 sequence (O14757 whole entry)
In words: Inhibition of DNA-tagged CHK1 (unknown origin) expressed in HEK293 cells at 10 uM after 1 hr by real-time fluorescent quantitative PCR analysis. The experiment is classed as cell-based.

Experiment [5] concerns the target Serine/threonine-protein kinase Chk2 (Homo sapiens) (UniProt O96017). The experiment is described as follows: Inhibition of DNA-tagged CHK2 (unknown origin) expressed in HEK293 cells at 10 uM after 1 hr by real-time fluorescent quantitative PCR analysis. The experiment is classed as cell-based.
The subject of experiment [6] is HT-29. The experiment is described as follows: Potentiation of gemcitabine-induced cell cycle arrest in human HT-29 cells assessed as accumulation at G1 phase at 10 uM after 48 hrs by propidium iodide/RNase staining-based flow cytometric analysis (reference value: 62.1%). The experiment is classed as functional.
In experiment [7] the target is Epidermal growth factor receptor (Homo sapiens) (UniProt P00533). The experiment is described as follows: Inhibition of DNA-tagged EGFR (unknown origin) expressed in HEK293 cells at 10 uM after 1 hr by real-time fluorescent quantitative PCR analysis. The class given is cell-based.
Experiment [8] deals with HT-29. The experiment is described as follows: Inhibition of colony formation in human HT-29 cells at <10 uM after 2 weeks by crystal violet staining-based assay. The class given is functional, cell-based.
In experiment [9] the test system is HT-29. The experiment is described as follows: Cell cycle arrest in human HT-29 cells assessed as accumulation at G2 phase at 10 uM after 48 hrs by propidium iodide/RNase staining-based flow cytometric analysis (reference value: 7.0%). The class given is functional.
For experiment [10], the system named is HEK293. In words: Antiproliferative activity against human HEK293 cells after 72 hrs by MTS assay. The class given is functional. The settings on record: HEK293, 72 h.
In experiment [11] the test system is HT-29. The experiment is described as follows: cells. As to conditions: Homo sapiens, HT-29, 72 h.
Description: Antiproliferative activity against human HT-29 cells after 72 hrs by MTS assay
Experiment [12] concerns the target Cyclin-dependent kinase 2 (Homo sapiens) (UniProt P24941). In words: Inhibition of DNA-tagged CDK2 (unknown origin) expressed in HEK293 cells at 10 uM after 1 hr by real-time fluorescent quantitative PCR analysis. The class given is cell-based.
The target of experiment [13] is cAMP-dependent protein kinase catalytic subunit alpha (Homo sapiens) (UniProt P17612). In words: Inhibition of DNA-tagged PKACalpha (unknown origin) expressed in HEK293 cells at 10 uM after 1 hr by real-time fluorescent quantitative PCR analysis. The class given is cell-based.
Experiment [14] addresses MAP kinase-activated protein kinase 2 (Homo sapiens) (UniProt P49137). The experiment is described as follows: Inhibition of DNA-tagged MAPKAPK2 (unknown origin) expressed in HEK293 cells at 10 uM after 1 hr by real-time fluorescent quantitative PCR analysis. The experiment is classed as cell-based.
Experiment [15] concerns the target T3, Calcium/calmodulin-dependent protein kinase type IV (Homo sapiens) (UniProt Q16566).
T3 sequence (whole entry): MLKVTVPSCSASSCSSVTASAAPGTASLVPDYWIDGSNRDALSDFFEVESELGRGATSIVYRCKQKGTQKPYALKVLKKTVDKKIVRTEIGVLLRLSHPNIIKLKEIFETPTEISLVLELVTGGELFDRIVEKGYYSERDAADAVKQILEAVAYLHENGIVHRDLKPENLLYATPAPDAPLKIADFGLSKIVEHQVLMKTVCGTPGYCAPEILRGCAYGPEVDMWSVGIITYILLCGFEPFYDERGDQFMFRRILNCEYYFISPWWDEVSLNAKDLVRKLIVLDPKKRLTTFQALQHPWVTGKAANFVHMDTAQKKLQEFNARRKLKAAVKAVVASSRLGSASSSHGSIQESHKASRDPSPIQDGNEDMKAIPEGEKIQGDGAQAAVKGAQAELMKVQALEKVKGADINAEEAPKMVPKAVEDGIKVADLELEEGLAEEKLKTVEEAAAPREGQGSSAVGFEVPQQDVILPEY
The experiment is described as follows: Inhibition of DNA-tagged CAMK4 (unknown origin) expressed in HEK293 cells at 10 uM after 1 hr by real-time fluorescent quantitative PCR analysis. The experiment is classed as cell-based.

Experiment [16] deals with ALK tyrosine kinase receptor (Homo sapiens) (UniProt Q9UM73). The experiment is described as follows: Inhibition of DNA-tagged ALK (unknown origin) expressed in HEK293 cells at 10 uM after 1 hr by real-time fluorescent quantitative PCR analysis. The experiment is classed as cell-based.
Experiment [17] deals with HT-29. In words: Cell cycle arrest in human HT-29 cells assessed as accumulation at G1 phase at 10 uM after 48 hrs by propidium iodide/RNase staining-based flow cytometric analysis (reference value: 62.1%). The experiment is classed as functional.
For experiment [18], the target named is T2, Serine/threonine-protein kinase Chk1 (Homo sapiens). In words: Inhibition of CHK1 (unknown origin) at 10 uM using Cdc25 peptide as substrate preincubated for 30 mins followed by substrate addition and measured after 60 mins by ADP-Glo kinase assay.
Experiment [19] deals with Glycogen synthase kinase-3 beta (Homo sapiens) (UniProt P49841). The experiment is described as follows: Inhibition of DNA-tagged GSK3beta (unknown origin) expressed in HEK293 cells at 10 uM after 1 hr by real-time fluorescent quantitative PCR analysis. The experiment is classed as cell-based.
Glycogen synthase kinase-3 beta (Homo sapiens), sequence (P49841 whole entry, looked up): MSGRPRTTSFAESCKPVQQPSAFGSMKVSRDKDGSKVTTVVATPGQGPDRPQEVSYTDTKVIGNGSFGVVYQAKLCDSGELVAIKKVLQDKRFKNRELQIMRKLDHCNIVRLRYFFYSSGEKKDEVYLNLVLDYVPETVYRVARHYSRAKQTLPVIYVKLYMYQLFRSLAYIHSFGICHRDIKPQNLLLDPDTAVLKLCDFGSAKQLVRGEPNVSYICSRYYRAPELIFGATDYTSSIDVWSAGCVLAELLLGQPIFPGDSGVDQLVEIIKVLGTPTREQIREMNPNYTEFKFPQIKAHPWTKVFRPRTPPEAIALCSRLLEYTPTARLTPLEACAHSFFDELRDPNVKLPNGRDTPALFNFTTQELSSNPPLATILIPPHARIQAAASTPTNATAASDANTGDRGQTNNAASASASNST

ALK tyrosine kinase receptor (Homo sapiens), sequence (Q9UM73 19-1620 limits assumed): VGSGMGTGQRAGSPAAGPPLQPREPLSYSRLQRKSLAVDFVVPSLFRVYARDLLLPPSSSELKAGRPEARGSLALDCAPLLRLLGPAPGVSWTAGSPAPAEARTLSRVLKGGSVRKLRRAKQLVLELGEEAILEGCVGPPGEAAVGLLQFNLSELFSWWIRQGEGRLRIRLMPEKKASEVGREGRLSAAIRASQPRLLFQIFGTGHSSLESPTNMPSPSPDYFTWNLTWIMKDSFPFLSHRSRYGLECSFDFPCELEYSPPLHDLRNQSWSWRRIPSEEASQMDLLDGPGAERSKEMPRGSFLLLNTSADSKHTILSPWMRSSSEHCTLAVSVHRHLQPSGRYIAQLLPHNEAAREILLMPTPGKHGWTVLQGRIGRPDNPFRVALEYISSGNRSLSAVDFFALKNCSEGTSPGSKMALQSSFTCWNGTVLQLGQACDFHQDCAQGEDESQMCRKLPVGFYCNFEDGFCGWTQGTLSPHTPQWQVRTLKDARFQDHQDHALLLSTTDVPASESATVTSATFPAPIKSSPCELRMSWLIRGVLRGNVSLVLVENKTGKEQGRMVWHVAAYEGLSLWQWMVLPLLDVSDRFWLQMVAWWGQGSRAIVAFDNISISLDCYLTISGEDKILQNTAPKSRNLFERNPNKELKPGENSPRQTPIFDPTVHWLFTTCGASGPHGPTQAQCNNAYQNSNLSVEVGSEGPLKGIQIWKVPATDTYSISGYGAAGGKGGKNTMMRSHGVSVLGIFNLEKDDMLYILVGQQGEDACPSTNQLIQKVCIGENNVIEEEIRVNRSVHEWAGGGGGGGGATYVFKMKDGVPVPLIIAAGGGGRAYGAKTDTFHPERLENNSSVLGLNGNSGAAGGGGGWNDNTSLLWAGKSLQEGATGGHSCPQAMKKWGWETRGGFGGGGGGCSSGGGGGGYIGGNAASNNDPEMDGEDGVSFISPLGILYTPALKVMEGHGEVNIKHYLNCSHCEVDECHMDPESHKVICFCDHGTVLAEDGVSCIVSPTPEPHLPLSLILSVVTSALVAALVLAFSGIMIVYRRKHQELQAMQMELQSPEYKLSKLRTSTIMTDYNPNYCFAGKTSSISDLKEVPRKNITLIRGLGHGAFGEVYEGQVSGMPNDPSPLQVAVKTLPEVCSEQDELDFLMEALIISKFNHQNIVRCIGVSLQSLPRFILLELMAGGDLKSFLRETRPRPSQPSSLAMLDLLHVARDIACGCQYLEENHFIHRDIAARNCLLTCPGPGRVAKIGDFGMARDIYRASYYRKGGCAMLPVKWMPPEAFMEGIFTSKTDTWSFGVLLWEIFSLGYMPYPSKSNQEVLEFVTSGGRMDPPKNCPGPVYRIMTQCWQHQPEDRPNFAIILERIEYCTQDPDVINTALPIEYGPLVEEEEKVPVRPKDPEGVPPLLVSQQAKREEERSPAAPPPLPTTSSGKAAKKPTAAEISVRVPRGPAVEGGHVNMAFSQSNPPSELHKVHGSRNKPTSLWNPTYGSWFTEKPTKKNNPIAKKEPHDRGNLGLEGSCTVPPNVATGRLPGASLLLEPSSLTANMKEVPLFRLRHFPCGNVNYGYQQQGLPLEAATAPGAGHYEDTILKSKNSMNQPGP
Epidermal growth factor receptor (Homo sapiens), sequence (P00533 whole entry): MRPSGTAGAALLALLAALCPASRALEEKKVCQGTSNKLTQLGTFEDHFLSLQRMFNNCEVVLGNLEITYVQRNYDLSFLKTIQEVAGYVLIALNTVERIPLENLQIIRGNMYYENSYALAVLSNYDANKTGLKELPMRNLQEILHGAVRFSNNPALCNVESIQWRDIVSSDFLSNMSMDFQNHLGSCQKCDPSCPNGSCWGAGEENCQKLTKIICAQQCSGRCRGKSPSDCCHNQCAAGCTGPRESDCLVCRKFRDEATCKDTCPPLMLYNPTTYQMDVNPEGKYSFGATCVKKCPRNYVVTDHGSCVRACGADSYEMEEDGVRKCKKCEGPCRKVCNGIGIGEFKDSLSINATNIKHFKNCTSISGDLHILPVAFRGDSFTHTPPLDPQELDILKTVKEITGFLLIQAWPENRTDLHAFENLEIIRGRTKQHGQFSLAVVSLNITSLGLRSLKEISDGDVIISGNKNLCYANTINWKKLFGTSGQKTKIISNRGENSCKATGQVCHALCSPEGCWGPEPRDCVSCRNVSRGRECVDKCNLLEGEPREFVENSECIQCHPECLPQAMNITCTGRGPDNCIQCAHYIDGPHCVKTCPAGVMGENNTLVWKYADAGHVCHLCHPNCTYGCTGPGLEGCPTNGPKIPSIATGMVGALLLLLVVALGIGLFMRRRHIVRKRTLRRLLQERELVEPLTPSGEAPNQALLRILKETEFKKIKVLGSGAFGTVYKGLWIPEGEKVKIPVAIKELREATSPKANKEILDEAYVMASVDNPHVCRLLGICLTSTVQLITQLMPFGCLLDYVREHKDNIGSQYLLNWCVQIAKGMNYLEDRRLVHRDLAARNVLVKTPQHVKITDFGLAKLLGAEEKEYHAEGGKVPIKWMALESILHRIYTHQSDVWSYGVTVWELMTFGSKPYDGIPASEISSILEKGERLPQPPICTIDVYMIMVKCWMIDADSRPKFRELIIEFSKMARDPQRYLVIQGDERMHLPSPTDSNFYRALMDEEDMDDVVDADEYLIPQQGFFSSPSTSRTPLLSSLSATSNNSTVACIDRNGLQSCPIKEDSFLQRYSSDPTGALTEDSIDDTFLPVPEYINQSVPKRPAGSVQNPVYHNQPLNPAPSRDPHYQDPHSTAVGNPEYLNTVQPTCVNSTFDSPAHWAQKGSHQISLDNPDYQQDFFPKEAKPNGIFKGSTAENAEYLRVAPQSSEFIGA
Serine/threonine-protein kinase Chk2 (Homo sapiens), sequence (O96017 whole entry): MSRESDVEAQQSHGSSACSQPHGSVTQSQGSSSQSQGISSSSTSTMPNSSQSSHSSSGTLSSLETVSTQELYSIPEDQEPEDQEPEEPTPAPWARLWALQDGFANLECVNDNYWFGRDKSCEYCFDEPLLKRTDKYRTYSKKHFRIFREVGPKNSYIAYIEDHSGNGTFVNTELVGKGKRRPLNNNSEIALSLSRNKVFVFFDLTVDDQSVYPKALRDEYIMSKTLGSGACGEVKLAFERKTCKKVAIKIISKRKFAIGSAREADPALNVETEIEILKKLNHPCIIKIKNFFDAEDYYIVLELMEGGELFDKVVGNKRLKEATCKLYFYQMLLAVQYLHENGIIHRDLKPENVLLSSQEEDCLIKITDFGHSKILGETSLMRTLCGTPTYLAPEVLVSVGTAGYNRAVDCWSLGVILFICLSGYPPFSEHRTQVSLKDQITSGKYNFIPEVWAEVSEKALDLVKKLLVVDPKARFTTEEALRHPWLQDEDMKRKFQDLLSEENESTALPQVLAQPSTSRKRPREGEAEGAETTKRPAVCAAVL
RAC-alpha serine/threonine-protein kinase (Homo sapiens), sequence (P31749 whole entry): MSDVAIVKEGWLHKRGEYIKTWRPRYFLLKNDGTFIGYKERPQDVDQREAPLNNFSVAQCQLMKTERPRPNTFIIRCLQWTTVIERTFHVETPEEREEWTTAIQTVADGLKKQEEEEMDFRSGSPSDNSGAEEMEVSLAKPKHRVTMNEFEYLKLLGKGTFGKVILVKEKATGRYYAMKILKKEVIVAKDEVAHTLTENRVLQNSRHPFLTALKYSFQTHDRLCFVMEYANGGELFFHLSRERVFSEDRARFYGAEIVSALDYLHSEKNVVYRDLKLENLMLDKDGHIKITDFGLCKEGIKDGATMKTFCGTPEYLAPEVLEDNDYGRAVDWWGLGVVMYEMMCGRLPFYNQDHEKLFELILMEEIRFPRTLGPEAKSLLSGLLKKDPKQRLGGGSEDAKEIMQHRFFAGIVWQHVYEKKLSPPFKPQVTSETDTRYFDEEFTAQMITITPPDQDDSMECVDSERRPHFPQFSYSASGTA
MAP kinase-activated protein kinase 2 (Homo sapiens), sequence (P49137 whole entry, looked up): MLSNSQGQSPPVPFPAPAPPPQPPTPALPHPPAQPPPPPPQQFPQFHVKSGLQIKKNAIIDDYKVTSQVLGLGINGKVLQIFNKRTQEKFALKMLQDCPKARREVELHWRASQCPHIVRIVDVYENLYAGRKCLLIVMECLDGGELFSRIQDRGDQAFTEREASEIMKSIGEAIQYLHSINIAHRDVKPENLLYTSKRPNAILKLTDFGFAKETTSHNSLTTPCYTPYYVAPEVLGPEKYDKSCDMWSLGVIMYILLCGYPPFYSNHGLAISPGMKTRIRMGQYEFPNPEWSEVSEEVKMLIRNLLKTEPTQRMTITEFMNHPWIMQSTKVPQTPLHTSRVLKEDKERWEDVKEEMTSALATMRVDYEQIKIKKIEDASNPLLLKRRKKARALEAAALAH

For `Fc1ccc(Nc2nc(N3CCOCC3)c3nc[nH]c3n2)cc1`, the Activity in experiment [1] was 61%; in experiment [6], 13.8%; in experiment [9], 10.5%; in experiment [17], 60%. For the same molecule, in experiment [2], the pIC50 was 6.16. Further, the inhibition in [3] came to 0%; in experiment [4], 89.9%; in experiment [5], 72%; in experiment [7], 0%; in experiment [12], 73%; in experiment [13] it was 0%. For the same molecule, the inhibition was found to be 18% in experiment [14]; 0% in experiment [15]; 1% in [16]; 89.9% in experiment [18]; 47% in experiment [19]. The inhibition entry in experiment [8] is “inactive”. For the same molecule, the GI50 in experiment [10] and in experiment [11] was more than 100 µM in each case.
